# Assay results reported in PubChem BioAssay AID2060497 (Molecular Pharmacology Branch, DTP, NCI, 2025).
# Test system: 317291-083-R-J1-PDC complex spheroids, viability
# Assay: Anticancer human tumor 317291-083-R-J1-PDC patient-derived soft tissue sarcoma cell line growth inhibition [GQUAD]
# Settings: for IC50: curve of first compound; for viability, T/C: stronger effect = lower value
# In short: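 Viability of tumor cells grown as complex spheroids with endothelial and stromal cells, exposed to drug combinations. Top concentration at or near clinical Cmax (else 10 microM), diluted in half-log increments.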
# [1] = second compound 0.0316 µM, first compound 0.0316 µM
# [2] = second compound 0.0316 µM, first compound 0.1 µM
# [3] = second compound 0.0316 µM, first compound 0.316 µM
# [4] = second compound 0.0316 µM, first compound 1 µM
# [5] = second compound 0.0316 µM, first compound 3.16 µM
# [6] = second compound 0.0316 µM, first compound 10 µM
# [7] = second compound 0.1 µM, first compound 0.0316 µM
# [8] = second compound 0.1 µM, first compound 0.1 µM
# [9] = second compound 0.1 µM, first compound 0.316 µM
# [10] = second compound 0.1 µM, first compound 1 µM
# [11] = second compound 0.1 µM, first compound 3.16 µM
# [12] = second compound 0.1 µM, first compound 10 µM
# [13] = second compound 0.316 µM, first compound 0.0316 µM
# [14] = second compound 0.316 µM, first compound 0.1 µM
# [15] = second compound 0.316 µM, first compound 0.316 µM
# [16] = second compound 0.316 µM, first compound 1 µM
# [17] = second compound 0.316 µM, first compound 3.16 µM
# [18] = second compound 0.316 µM, first compound 10 µM
# [19] = second compound 1 µM, first compound 0.0316 µM
# [20] = second compound 1 µM, first compound 0.1 µM
# [21] = second compound 1 µM, first compound 0.316 µM
# [22] = second compound 1 µM, first compound 1 µM
# [23] = second compound 1 µM, first compound 3.16 µM
# [24] = second compound 1 µM, first compound 10 µM
# [25] = second compound 3.16 µM, first compound 0.0316 µM
# [26] = second compound 3.16 µM, first compound 0.1 µM
# [27] = second compound 3.16 µM, first compound 0.316 µM
# [28] = second compound 3.16 µM, first compound 1 µM
# [29] = second compound 3.16 µM, first compound 3.16 µM
# [30] = second compound 3.16 µM, first compound 10 µM
# [31] = second compound 10 µM, first compound 0.0316 µM
# [32] = second compound 10 µM, first compound 0.1 µM
# [33] = second compound 10 µM, first compound 0.316 µM
# [34] = second compound 10 µM, first compound 1 µM
# [35] = second compound 10 µM, first compound 3.16 µM
# [36] = second compound 10 µM, first compound 10 µM
# 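Also: spheroids exposed to compounds for one week before readout.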
# 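For viability, T/C in this document: percent viability relative to DMSO vehicle wells taken as 100%.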
compound,measurement,setting,value
Cc1cccc(N(C)C(=O)C2C(O)CCN2c2nc(C)cc(C(F)(F)F)c2C#N)c1 (centres undefined) + Cc1cnc(CNC(=O)c2c(=O)c3ccc(N4CCCN(C)CC4)nc3n3c2sc2ccccc23)cn1,IC50,second compound 0.0316 µM,> 10 µM
same,IC50,second compound 0.1 µM,> 10 µM
same,IC50,second compound 0.316 µM,4.45 µM
same,IC50,second compound 1 µM,< 0.0316 µM
same,IC50,second compound 3.16 µM,< 0.0316 µM
same,IC50,second compound 10 µM,< 0.0316 µM
same,"viability, T/C",[1],118%
same,"viability, T/C",[2],81.9%
same,"viability, T/C",[3],89.3%
same,"viability, T/C",[4],84.5%
same,"viability, T/C",[5],85.2%
same,"viability, T/C",[6],80.2%
same,"viability, T/C",[7],78.7%
same,"viability, T/C",[8],58.7%
same,"viability, T/C",[9],62.3%
same,"viability, T/C",[10],74%
same,"viability, T/C",[11],56%
same,"viability, T/C",[12],61.2%
same,"viability, T/C",[13],41.6%
same,"viability, T/C",[14],83.8%
same,"viability, T/C",[15],48%
same,"viability, T/C",[16],43.2%
same,"viability, T/C",[17],64%
same,"viability, T/C",[18],35.5%
same,"viability, T/C",[19],38.2%
same,"viability, T/C",[20],29.7%
same,"viability, T/C",[21],37.7%
same,"viability, T/C",[22],28.5%
same,"viability, T/C",[23],37.9%
same,"viability, T/C",[24],30.1%
same,"viability, T/C",[25],25.4%
same,"viability, T/C",[26],22.3%
same,"viability, T/C",[27],16.1%
same,"viability, T/C",[28],18.2%
same,"viability, T/C",[29],28.9%
same,"viability, T/C",[30],33.5%
same,"viability, T/C",[31],33.2%
same,"viability, T/C",[32],35.5%
same,"viability, T/C",[33],24.4%
same,"viability, T/C",[34],42.2%
same,"viability, T/C",[35],28.8%
same,"viability, T/C",[36],52.6%
O=c1[nH]cc(F)c(=O)[nH]1 + CN(C)c1ccc(Nc2c3ccc(NC(=O)CCN4CCCC4)cc3nc3cc(NC(=O)CCN4CCCC4)ccc23)cc1,IC50,second compound 0.0316 µM,2.32 µM
same,IC50,second compound 0.1 µM,2.44 µM
same,IC50,second compound 0.316 µM,1.76 µM
same,IC50,second compound 1 µM,0.0316 µM
same,IC50,second compound 3.16 µM,< 0.0316 µM
same,IC50,second compound 10 µM,< 0.0316 µM
same,"viability, T/C",[1],91.6%
same,"viability, T/C",[2],83.3%
same,"viability, T/C",[3],101%
same,"viability, T/C",[4],74.3%
same,"viability, T/C",[5],43.5%
same,"viability, T/C",[6],38.5%
same,"viability, T/C",[7],110%
same,"viability, T/C",[8],106%
same,"viability, T/C",[9],103%
same,"viability, T/C",[10],69.7%
same,"viability, T/C",[11],46.2%
same,"viability, T/C",[12],36.6%
same,"viability, T/C",[13],89.4%
same,"viability, T/C",[14],74.7%
same,"viability, T/C",[15],83.2%
same,"viability, T/C",[16],56.4%
same,"viability, T/C",[17],42.1%
same,"viability, T/C",[18],29.5%
same,"viability, T/C",[19],53.2%
same,"viability, T/C",[20],43.2%
same,"viability, T/C",[21],51.1%
same,"viability, T/C",[22],21.3%
same,"viability, T/C",[23],29.4%
same,"viability, T/C",[24],23.3%
same,"viability, T/C",[25],36.6%
same,"viability, T/C",[26],27.3%
same,"viability, T/C",[27],35.1%
same,"viability, T/C",[28],26.8%
same,"viability, T/C",[29],27.2%
same,"viability, T/C",[30],22.6%
same,"viability, T/C",[31],7.27%
same,"viability, T/C",[32],5.52%
same,"viability, T/C",[33],17%
same,"viability, T/C",[34],11.3%
same,"viability, T/C",[35],9.24%
same,"viability, T/C",[36],7.86%
